Laboratory results taken from patent US20240400560A1, “BICYCLIC HETEROCYCLIC DERIVATIVE HAVING VIRAL GROWTH INHIBITORY ACTIVITY AND PHARMACEUTICAL COMPOSITION CONTAINING SAME” (Shionogi & Co., Ltd., priority 2021, published 2024).
Like-named read-outs stand apart in the source and are kept apart here.

What was measured:
SARS-CoV-2 3CL protease = SARS-CoV-2 3CL protease (Severe acute respiratory syndrome coronavirus 2, UniProt P0DTD1); test: Inhibitory activity test against SARS-CoV-2 3CL proteases; type: biochemical
SARS-CoV-2 = test: Inhibitory activity of cytopathic effect (CPE) in HEK293T/ACE2-TMPRSS2 cells; type: cell-based; settings: Severe acute respiratory syndrome coronavirus 2, HEK-293T, 72 h
[1] = IC50 (50% SARS-CoV-2 3CL protease inhibitory concentration)
[2] = read-out: EC50 (50% SARS-CoV-2 infected cell death inhibitory concentration)
[3] = read-out: IC50 (50% SARS-CoV-2 3CL protease inhibitory concentration)
[4] = HEK293T/ACE2-TMPRSS2 cells, cultured 3 days, CellTiter-Glo 2.0 luminescence, read-out: EC50 (50% SARS-CoV-2 infected cell death inhibitory concentration)
[5] = 50% SARS-CoV-2 infected cell death inhibitory concentration, HEK293T/ACE2-TMPRSS2 cells, CellTiter-Glo 2.0 after 3 days culture, read-out: EC50

Row | Structure (SMILES) | IC50 (SARS-CoV-2 3CL protease; [1]) [nM] | EC50 (SARS-CoV-2; [2]) [nM] | IC50 (SARS-CoV-2 3CL protease; [3]) [nM] | EC50 (SARS-CoV-2; [4]) [nM] | EC50 (SARS-CoV-2; [5]) [nM]
1 | O=c1c2c(F)cc(N3[C@@H]4CC[C@H]3CNC4)cc2n(Cc2cc(F)c(F)c(Cl)c2)c(=O)n1-c1cnc2ccccn12 [Compound I-0548] | < 100 | < 100 |  |  | 
2 | CCc1cc2c(c(OC)n1)c(=O)n(-c1cnc3cc(F)ccn13)c(=O)n2-c1ccc(F)c(Cl)c1 [Compound I-1032] |  |  | < 100 | < 100 | 
3 | COc1nc2c(=O)n(Cc3ncn(C)n3)c(=O)n(Cc3cc(Cl)ccc3Cl)c2cc1-c1cc(C#N)ccc1Cl [Compound I-0713] |  |  | < 100 | 100 to 1000 | 
4 | COc1nc(N2CC[C@@H](O)C2)cc2c1c(=O)n(-c1cncc(OC(F)F)c1)c(=O)n2-c1ccc(F)c(Cl)c1 [Compound I-0968] |  |  | < 100 | < 100 | 
5 | COc1nc(N2CCC(F)(F)C2)cc2c1c(=O)n(-c1cncc(C#N)c1)c(=O)n2-c1ccc(F)c(F)c1 [Compound I-1057] |  |  | < 100 | < 100 | 
6 | COc1ccc(Cl)c(-c2cc(OC)c3c(=O)n(Cc4ncn(C)n4)c(=O)n(Cc4cc(F)c(F)c(F)c4)c3c2)c1F [Compound I-0557] |  |  | < 100 | 100 to 1000 | 
7 | COc1nc(N2CC[C@@H](O)C2)cc2c1c(=O)n(-c1cnc3cc(F)ccn13)c(=O)n2Cc1cc(F)c(F)c(F)c1 [Compound I-0730] |  |  | < 100 | < 100 | 
8 | COc1nc(N2[C@@H]3CC[C@H]2COC3)cc2c1c(=O)n(-c1cnc3cc(F)ccn13)c(=O)n2-c1ccc(F)c(Cl)c1 [Compound I-1001] | < 100 | < 100 |  |  | 
9 | N#Cc1ccc(Cl)c(-c2cc3c(c(=O)n(-c4cnc5ccccn45)c(=O)n3Cc3cc(F)c(F)c(F)c3)c3nccnc23)c1 [Compound I-0844] |  |  | < 100 | < 100 | 
10 | COc1nc(N2CCC(O)(CF)C2)cc2c1c(=O)n(-c1cncc(Cl)c1)c(=O)n2-c1ccc(F)c(Cl)c1 (stereo not drawn) [Compound I-1004] |  |  | < 100 | < 100 | 
11 | COc1nc(N2CC(C)(OC)C2)cc2c1c(=O)n(-c1cnc3cc(F)ccn13)c(=O)n2-c1ccc(F)c(Cl)c1 [Compound I-0762] |  |  | < 100 | < 100 | 
12 | COc1nc(N2[C@@H]3CC[C@H]2CNC3)cc2c1c(=O)n(-c1cnc3cc(F)ccn13)c(=O)n2Cc1cc(F)c(F)c(F)c1 [Compound I-0682] | < 100 | < 100 |  |  | 
13 | Cn1cnc(Cn2c(=O)c3c4nccnc4c(-c4c(F)cc(F)cc4F)cc3n(Cc3cc(F)c(F)c(Cl)c3)c2=O)n1 [Compound I-0571] |  |  | < 100 | < 100 | 
14 | COc1cc(-c2c(Cl)ccc3c2CCC(=O)N3C)cc2c1c(=O)n(Cc1ncn(C)n1)c(=O)n2Cc1cc(F)c(F)c(F)c1 [Compound I-0868] |  |  | 1.6 |  | 21.4
15 | COc1nc(N2CC[C@@H](O)C2)cc2c1c(=O)n(-c1cnc3cc(F)c(F)cn13)c(=O)n2-c1ccc(F)c(Cl)c1 [Compound I-0967] |  |  | < 100 | < 100 | 
16 | [2H]C([2H])([2H])O[C@@H]1CCN(c2cc3c(c(OC)n2)c(=O)n(-c2cncc(Cl)c2)c(=O)n3-c2ccc(F)c(F)c2)C1 [Compound I-0973] |  |  | < 100 | < 100 | 
17 | COc1nc(C2CCOCC2)cc2c1c(=O)n(-c1cnc3cc(F)ccn13)c(=O)n2-c1ccc(F)c(Cl)c1 [Compound I-1021] |  |  | 12 |  | 16.1
18 | COc1nc(N2CC[C@@H](OC(F)F)C2)cc2c1c(=O)n(-c1cnc3cc(F)ccn13)c(=O)n2-c1ccc(F)c(F)c1 [Compound I-1024] |  |  | < 100 | < 100 | 
19 | COCCN(C)c1cc2c(c(OC)n1)c(=O)n(-c1cnc3cc(F)ccn13)c(=O)n2-c1ccc(F)c(Cl)c1 [Compound I-0653] |  |  | 14 |  | 11.6
20 | COc1cc(-c2cc(C#N)ccc2Cl)cc2c1c(=O)n(Cc1ncn(C)n1)c(=O)n2[C@H](C)c1cc(F)c(F)c(F)c1 [Compound I-0595] |  |  | < 100 | < 100 | 
21 | COc1nc(N2CC[C@@H](O)C2)cc2c1c(=O)n(-c1cncc(Cl)c1)c(=O)n2-c1ccc(F)c(Cl)c1 [Compound I-0944] |  |  | < 100 | < 100 | 
22 | COc1nc(N2CCOC[C@H]2C)cc2c1c(=O)n(-c1cnc3cc(F)ccn13)c(=O)n2-c1ccc(F)c(Cl)c1 [Compound I-1054] |  |  | < 100 | < 100 | 
23 | [2H]C([2H])([2H])O[C@@H]1CCN(c2cc3c(c(OC)n2)c(=O)n(-c2cncc(C(F)F)c2)c(=O)n3-c2ccc(F)c(Cl)c2)C1 [Compound I-0970] |  |  | < 100 | < 100 | 
24 | COc1cc(-c2cc(C#N)ccc2Br)cc2c1c(=O)n(Cc1ncn(C)n1)c(=O)n2Cc1cc(F)c(F)c(F)c1 [Compound I-0891] |  |  | 10 |  | 12.1
